Read-outs that look alike come from different tables or passages of the source.
Key:
KRAS G12S = KRAS G12S (Homo sapiens, UniProt P01116+P62937, G12S); experiment: Disruption of BRAF RBD interaction with Ras (FRET / MOA assay, with Cyclophilin A); assay type: biochemical
Outline: (§1)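 Measured via TR-FRET after 3 h at 25 °C with compound (30 μM top, threefold serial steps, ten concentrations) plus K-Ras, Cyclophilin A and BRAF RBD, followed by 1.5 h with anti-His europium (10 nM) and anti-GST allophycocyanin (50 nM). Signal loss versus DMSO gave IC50.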

KRAS G12C = KRAS G12C (Homo sapiens, UniProt P01116+P62937, G12C); experiment: as above; assay type: biochemical
Outline: as §1

KRAS G12V = KRAS G12V (Homo sapiens, UniProt P01116+P62937, G12V); experiment: as above; assay type: biochemical
Outline: as §1

KRAS G13C = KRAS G13C (Homo sapiens, UniProt P01116+P62937, G13C); experiment: as above; assay type: biochemical
Outline: as §1

NRAS G12C = NRAS G12C (Homo sapiens, UniProt P01111+P62937, G12C); experiment: as above; assay type: biochemical
KRAS G12D = KRAS G12D (Homo sapiens, UniProt P01116+P62937, G12D); experiment: as above; assay type: biochemical
Outline: as §1

KRAS G13D = KRAS G13D (Homo sapiens, UniProt P01116+P62937, G13D); experiment: as above; assay type: biochemical
Outline: as §1

KRAS WT = KRAS WT (Homo sapiens, UniProt P01116+P62937); experiment: as above; assay type: biochemical
Outline: as §1

Capan-1 (K-Ras G12V) = experiment: CellTiter-Glo cell viability assay, 5-day treatment; assay type: cell-based; conditions: Homo sapiens, CAPAN-1, 120 h, 5-day treatment; read-out: Capan-1 Cell Viability assay data (K-Ras G12V, IC50)
Outline: (§2)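 Compounds were dispensed directly onto seeded cells and incubated for 5 days, then plates were equilibrated to room temperature for about 30 minutes before luminescence reading. Signals were expressed as percent of the mean DMSO control and fitted with a four-parameter logistic curve.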

NCI-H358 (K-Ras G12C) = experiment: as above; assay type: cell-based; conditions: Homo sapiens, NCI-H358, 120 h, 5-day treatment; read-out: H358 Cell Viability assay data (K-Ras G12C, IC50)
Outline: as §2

[1] = read-out: KRAS G12S FRET data, IC50
[2] = read-out: KRAS G12C FRET data, IC50
[3] = KRAS G12V, read-out: KRAS G12V FRET data IC50
[4] = read-out: KRAS G13C FRET data, IC50
[5] = NRAS G12C, read-out: NRAS G12C FRET data IC50
[6] = read-out: KRAS G12D FRET data, IC50
[7] = KRAS G13D, read-out: KRAS G13D FRET data IC50
[8] = KRAS WT, read-out: KRAS WT FRET data IC50
[9] = KRAS G12V FRET data IC50, KRAS G12V
[10] = NRAS G12C FRET data IC50, NRAS G12C
[11] = KRAS G13D FRET data IC50, KRAS G13D
[12] = KRAS WT FRET data IC50, KRAS WT

NRAS G12C, sequence (P01111 whole entry G12C): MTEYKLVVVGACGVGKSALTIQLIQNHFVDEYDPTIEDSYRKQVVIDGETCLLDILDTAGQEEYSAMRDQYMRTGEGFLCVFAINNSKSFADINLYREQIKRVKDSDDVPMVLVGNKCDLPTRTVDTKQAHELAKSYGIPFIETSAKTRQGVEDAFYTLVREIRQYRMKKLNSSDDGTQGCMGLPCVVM
NRAS G12C, sequence (P62937 whole entry): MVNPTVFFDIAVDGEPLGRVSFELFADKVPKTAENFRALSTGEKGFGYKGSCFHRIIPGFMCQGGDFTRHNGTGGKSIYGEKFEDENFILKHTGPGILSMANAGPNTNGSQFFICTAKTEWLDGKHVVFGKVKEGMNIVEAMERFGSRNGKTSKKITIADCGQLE
KRAS G12V, sequence (P01116 1-169 isoform P01116-2 G12V limits assumed): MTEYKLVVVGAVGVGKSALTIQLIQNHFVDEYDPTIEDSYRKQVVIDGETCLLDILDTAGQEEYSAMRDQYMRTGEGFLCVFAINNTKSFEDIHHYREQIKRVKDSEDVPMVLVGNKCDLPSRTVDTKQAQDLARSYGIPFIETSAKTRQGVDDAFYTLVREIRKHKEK
KRAS G12V, sequence (P62937 whole entry): as the sequence (P62937 whole entry) above
KRAS G12D, sequence (P01116 1-169 isoform P01116-2 G12D limits assumed): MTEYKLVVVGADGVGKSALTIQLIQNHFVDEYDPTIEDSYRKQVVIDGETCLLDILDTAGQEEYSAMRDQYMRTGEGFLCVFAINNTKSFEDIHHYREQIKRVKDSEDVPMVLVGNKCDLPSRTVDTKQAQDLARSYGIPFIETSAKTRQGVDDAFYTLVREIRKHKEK
KRAS G12D, sequence (P62937 whole entry): as the sequence (P62937 whole entry) above
KRAS G12C, sequence (P01116 1-169 isoform P01116-2 G12C): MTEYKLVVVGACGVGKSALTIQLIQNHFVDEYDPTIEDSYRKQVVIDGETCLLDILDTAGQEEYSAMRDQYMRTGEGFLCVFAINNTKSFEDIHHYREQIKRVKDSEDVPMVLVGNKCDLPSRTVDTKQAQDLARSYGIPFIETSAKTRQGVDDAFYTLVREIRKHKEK
KRAS G12C, sequence (P62937 whole entry): as the sequence (P62937 whole entry) above
KRAS G13C, sequence (P01116 1-169 isoform P01116-2 G13C): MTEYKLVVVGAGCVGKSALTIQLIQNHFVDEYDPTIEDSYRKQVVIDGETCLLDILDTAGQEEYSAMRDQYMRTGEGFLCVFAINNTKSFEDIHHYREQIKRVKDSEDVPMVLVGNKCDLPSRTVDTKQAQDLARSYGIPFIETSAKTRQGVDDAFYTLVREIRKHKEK
KRAS G13C, sequence (P62937 whole entry): as the sequence (P62937 whole entry) above
KRAS G12S, sequence (P01116 1-169 isoform P01116-2 G12S limits assumed): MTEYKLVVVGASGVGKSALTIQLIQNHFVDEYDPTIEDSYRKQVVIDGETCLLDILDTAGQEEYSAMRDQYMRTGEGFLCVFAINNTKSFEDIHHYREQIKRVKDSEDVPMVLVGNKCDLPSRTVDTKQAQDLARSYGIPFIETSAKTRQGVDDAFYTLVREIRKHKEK
KRAS G12S, sequence (P62937 whole entry): as the sequence (P62937 whole entry) above
KRAS G13D, sequence (P01116 1-169 isoform P01116-2 G13D limits assumed): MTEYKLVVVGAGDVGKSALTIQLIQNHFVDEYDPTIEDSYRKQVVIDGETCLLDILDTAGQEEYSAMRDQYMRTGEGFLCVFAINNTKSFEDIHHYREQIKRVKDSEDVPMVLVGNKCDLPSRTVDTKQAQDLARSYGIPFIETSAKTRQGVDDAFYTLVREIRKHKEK
KRAS G13D, sequence (P62937 whole entry): as the sequence (P62937 whole entry) above
KRAS WT, sequence (P01116 1-169 isoform P01116-2 limits assumed): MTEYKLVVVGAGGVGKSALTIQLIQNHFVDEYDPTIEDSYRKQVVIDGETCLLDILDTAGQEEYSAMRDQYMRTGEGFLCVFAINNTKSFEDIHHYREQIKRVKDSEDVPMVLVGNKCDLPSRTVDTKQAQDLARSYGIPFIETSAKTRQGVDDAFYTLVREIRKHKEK
KRAS WT, sequence (P62937 whole entry): as the sequence (P62937 whole entry) above

SMILES | IC50 (KRAS G12S; [1]) [nM] | IC50 (KRAS G12C; [2]) [nM] | IC50 (KRAS G12V; [3]) [nM] | IC50 (KRAS G13C; [4]) [nM] | IC50 (NRAS G12C; [5]) [nM] | IC50 (KRAS G12D; [6]) [nM] | IC50 (KRAS G13D; [7]) [nM] | IC50 (KRAS WT; [8]) [nM] | IC50 (NCI-H358 (K-Ras G12C)) [nM] | IC50 (Capan-1 (K-Ras G12V)) [nM] | IC50 (KRAS G12S; KRAS G12S FRET data, IC50) [nM] | IC50 (KRAS G12C; KRAS G12C FRET data, IC50) [nM] | IC50 (KRAS G12V; [9]) [nM] | IC50 (KRAS G13C; KRAS G13C FRET data, IC50) [nM] | IC50 (NRAS G12C; [10]) [nM] | IC50 (KRAS G12D; KRAS G12D FRET data, IC50) [nM] | IC50 (KRAS G13D; [11]) [nM] | IC50 (KRAS WT; [12]) [nM]
CCn1c(-c2cccnc2[C@H](C)OC)c2c3cc(ccc31)-c1cc(O)cc(c1)C[C@H](NC(=O)[C@H](C(C)C)N(C)C(=O)[C@H]1CC1(F)F)C(=O)N1CCC[C@H](N1)C(=O)OCC(C)(C)C2 [Example A166] | 100 to 1000 | 10 to 100 | 100 to 1000 | 10 to 100 | 10 to 100 | 100 to 1000 | 100 to 1000 | 10 to 100 | 100 to 1000 | 100 to 1000 |  |  |  |  |  |  |  | 
CCn1c(-c2cccnc2[C@H](C)OC)c2c3cc(ccc31)-c1cc(O)cc(c1)C[C@H](NC(=O)[C@H](C(C)C)N(C)C(=O)C1CC13CC3)C(=O)N1CCC[C@H](N1)C(=O)OCC(C)(C)C2 (some centres unmarked) [Example A156] | 10 to 100 | 10 to 100 | 10 to 100 | 10 to 100 | 10 to 100 | 100 to 1000 | 100 to 1000 | 10 to 100 | 10 to 100 | 10 to 100 |  |  |  |  |  |  |  | 
CCn1c(-c2cccnc2[C@H](C)OC)c2c3cc(ccc31)-c1cc(O)cc(c1)C[C@H](NC(=O)[C@H](C(C)C)N(C)C(=O)[C@@H]1CC1(C)C)C(=O)N1CCC[C@H](N1)C(=O)OCC(C)(C)C2 [Example A157] | 100 to 1000 | 10 to 100 | 100 to 1000 | 100 to 1000 | 10 to 100 | 100 to 1000 | 100 to 1000 | 10 to 100 | 100 to 1000 | 100 to 1000 |  |  |  |  |  |  |  | 
CCn1c(-c2cccnc2[C@H](C)OC)c2c3cc(ccc31)-c1cc(O)cc(c1)C[C@H](NC(=O)[C@H](C(C)C)N(C)C(=O)Cc1cc[nH]n1)C(=O)N1CCC[C@H](N1)C(=O)OCC(C)(C)C2 [Example A126] | 100 to 1000 | 10 to 100 | 100 to 1000 | 10 to 100 | 100 to 1000 | 100 to 1000 | 100 to 1000 | 10 to 100 | 100 to 1000 | 100 to 1000 |  |  |  |  |  |  |  | 
CCn1c(-c2cccnc2[C@H](C)OC)c2c3cc(ccc31)-c1cc(O)cc(c1)C[C@H](NC(=O)[C@H](C(C)C)N(C)C(=O)[C@@H]1CC1(F)F)C(=O)N1CCC[C@H](N1)C(=O)OCC(C)(C)C2 [Example A167] |  |  |  |  |  |  |  |  | 100 to 1000 | 100 to 1000 | 100 to 1000 | 100 to 1000 | 100 to 1000 | 100 to 1000 | 100 to 1000 | 100 to 1000 | 100 to 1000 | 100 to 1000

Now from value to compound, other results behind:

IC50 (KRAS G12S; [1]) [nM] | IC50 (KRAS G12C; [2]) [nM] | IC50 (KRAS G12V; [3]) [nM] | IC50 (KRAS G13C; [4]) [nM] | IC50 (NRAS G12C; [5]) [nM] | IC50 (KRAS G12D; [6]) [nM] | IC50 (KRAS G13D; [7]) [nM] | IC50 (KRAS WT; [8]) [nM] | IC50 (NCI-H358 (K-Ras G12C)) [nM] | SMILES | IC50 (Capan-1 (K-Ras G12V)) [nM] | IC50 (KRAS G12S; KRAS G12S FRET data, IC50) [nM] | IC50 (KRAS G12C; KRAS G12C FRET data, IC50) [nM] | IC50 (KRAS G12V; [9]) [nM] | IC50 (KRAS G13C; KRAS G13C FRET data, IC50) [nM] | IC50 (NRAS G12C; [10]) [nM] | IC50 (KRAS G12D; KRAS G12D FRET data, IC50) [nM] | IC50 (KRAS G13D; [11]) [nM] | IC50 (KRAS WT; [12]) [nM]
100 to 1000 | 100 to 1000 | 100 to 1000 | 10 to 100 | 100 to 1000 | 1000 to 10000 | 100 to 1000 | 100 to 1000 | 100 to 1000 | CCn1c(-c2cnccc2[C@H](C)OC)c2c3cc(ccc31)-c1cc(O)cc(c1)C[C@H](NC(=O)[C@H](C(C)C)N(C)C(C)=O)C(=O)N1CCC[C@H](N1)C(=O)OCC(C)(C)C2 [Example A21] | 100 to 1000 |  |  |  |  |  |  |  | 
100 to 1000 | 100 to 1000 | 1000 to 10000 | 100 to 1000 | 100 to 1000 | 100 to 1000 | 100 to 1000 | 100 to 1000 | 1000 to 10000 | CCn1c(-c2cnccc2COC)c2c3cc(ccc31)-c1cc(O)cc(c1)C[C@H](NC(=O)[C@H](C(C)C)N(C)C(=O)[C@@H]1CCCN(C)C1)C(=O)N1CCC[C@H](N1)C(=O)OCC(C)(C)C2 [Example A259] | 1000 to 10000 |  |  |  |  |  |  |  | 
 |  |  |  |  |  |  |  | 1000 to 10000 | CCn1c(-c2cnccc2COC)c2c3cc(ccc31)-c1cc(O)cc(c1)C[C@H](NC(=O)[C@H](C(C)C)N(C)C(=O)CO)C(=O)N1CCC[C@H](N1)C(=O)OCC(C)(C)C2 [Example A43, (2S)—N-[(8S,14S)-22-ethyl-4-hydroxy-21-[4-(methoxymethyl)pyridin-3-yl]-18,18-dimethyl-9,15-dioxo-16-oxa-10,22,28-triazapentacyclo[18.5.2.1^2,6.1^10,14.0^23,27]nonacosa-1(26),2,4,6(29),20,23(27),24-heptaen-8-yl]-2-(2-hydroxy-N-methylacetamido)-3-methylbutanamide] | 1000 to 10000 | 100 to 1000 | 100 to 1000 | 100 to 1000 | 100 to 1000 | 100 to 1000 | 1000 to 10000 | 100 to 1000 | 100 to 1000
